Results on 1 compound are retold here after patent US7655655B1, “Method for facilitating extinction training using D-cycloserine” (priority 2009, dated 2010).

Data set [1] relates to subjects chronically ill with tuberculosis. Conditions: chronic dosing schedules, typical tuberculosis doses 500-1000 mg/day; cited from earlier work.
The next data set has as its system rats. The note with it: cited from earlier work.
For data set [2] the following is noted: cited from earlier work.
For data set [3], the system named is Mycobacterium tuberculosis strains. Conditions: typical Mycobacterium tuberculosis strains; cited from earlier work.
The next data set has as its system Sprague Dawley rats. Description: Extinction of fear-potentiated startle in rats with post-extinction training pre-sleep administration. The format is in vivo, rat. Conditions: higher values signify greater extinction. The protocol: Subjects. Twenty male, Sprague Dawley rats (300-350 grams) were used. Rats were placed in cages used to measure the acoustic startle reflex (Cassella, J. V., and Davis, M. “The design and calibration of a startle measurement system”, Physiology & Behavior (1986), 36, pp. 377-383) and, after a 5 minute acclimation period, presented with 50 startle stimuli (50-ms duration, 5-ms rise-decay time), 10 at each of five intensities (95, 100, 105, 110, and 115 dB) in a semi-random order at a 30-s interstimulus interval. The animals were subsequently divided into four groups of five rats, each having similar mean startle amplitudes across the 10 stimuli at the five intensities.
Fear conditioning and testing. On two consecutive training days, animals were placed in the startle chambers and after a 5-min acclimation period, presented with 10 light shock pairings. The shock was presented during the last 500 ms of the 3,700-ms light at an average intertrial interval of 3 minutes (range, 2-4 min). No further shocks were presented thereafter. Twenty-four hours after the second training day, rats were placed in the startle chamber and presented with 30 95-dB startle stimuli (leaders), followed by the first of 10 startle stimuli presented 3.2 seconds after onset of the light that had previously been paired with a shock, and 10 more startle stimuli alone. The two trial types (light-startle and startle-alone) were presented in an irregular balanced order at a 30-s interstimulus interval. Based on the mean difference in startle amplitude between the mean startle amplitude across the last 10 leaders and the mean startle amplitude across the light-startle trials, a percent fear-potentiated startle was computed as: [(mean difference in startle amplitude between the light-startle and leaders)/mean leaders]×100. The rats were divided into four groups.
Extinction training with or without sleep deprivation. […] Although sleep was not measured directly, the rats were observed on closed-circuit TV and appeared to sleep (rats tend to sleep in the day, when the lights are on). […]

Another data set relates to subjects with acrophobia. Conditions: DCS administered prior to virtual reality therapy sessions, versus placebo; cited from earlier work.

Read-outs that look alike come from different tables or passages of the source.

Turning to `N[C@@H]1CON=C1O` [DCS, D-cycloserine], in data set [1], the recorded side effects entry is “drowsiness, depression, headache, confusion, tremor, vertigo, and memory difficulties, paresthesias, and seizure”. The “effect on extinction learning” value with rats (DCS injected after extinction training) is recorded as “facilitated extinction learning”; with rats (delay between extinction training and administration of DCS increased to four hours), “no significant facilitatory effect”. Moreover, the peak serum concentrations result is listed as “less than or equal to 5 μg/mL” in data set [2] (child subject, sub-antimicrobial dose less than or equal to 2 mg/kg) and “less than or equal to 5 μg/mL” in data set [2] (sub-antimicrobial dose, less than or equal to 2 mg/kg, substantial variability between subjects). The “serum concentrations generally maintained” value in data set [2] (dose of 500 mg/day, chronic treatment of tuberculosis) was 25000 to 30000 ng/mL. For the same compound, the “time of peak serum concentrations after dosing” value in data set [2] (known oral capsules) is 3 to 8 h. Besides, in data set [3], the “minimum inhibitory concentrations (MIC) in vitro” value is 6 to 25 µg/mL. Besides, the “mean change in percent fear-potentiated startle prior to and after extinction training” value with Sprague Dawley rats (DCS-DCS group: 15 mg/kg DCS i.p. 15 min before extinction training and again pre-sleep 4 h after training, n=3) is listed as 176%; in the data set with Sprague Dawley rats (DCS-Sal group: 15 mg/kg DCS i.p. 15 min before extinction training, saline pre-sleep 4 h after training, n=3), 78%; with Sprague Dawley rats (Sal-DCS group: saline i.p. 15 min before extinction training, 15 mg/kg DCS i.p. pre-sleep 4 h after training, n=4) it was 164%. For the same compound, the “number of therapy sessions required to reach a defined clinical endpoint” value in the data set with subjects with acrophobia is “significant reduction”.
